Here are results for 2 compounds from PMC10518717, “High-Throughput Screening and Proteomic Characterization of Compounds Targeting Myeloid-Derived Suppressor Cells” (Molecular & Cellular Proteomics : MCP, 2023).

This experiment has as its system NUP-MDSC. In words: Global proteome expression profiling of compound-treated NUP-MDSC (TMT LC-MS/MS). The following applies: for log2 FC cmpd2/cmpd3: cmpd2 versus cmpd3, NUP-MDSC; for normalized reporter intensities R1: replicate R1, compound-treated NUP-MDSC; for normalized reporter intensities R3: replicate R3, compound-treated NUP-MDSC. In kind it is cell-based, mouse. The procedure: After treatments, medium was removed, cells were washed twice with PBS, and the cell pellets were further subjected to proteomic sample preparation.
The cell pellet was reconstituted in 2% SDS in 50 mM Tris–HCl pH 7.5 and lysed by heating to 95 °C for 10 min. One microliter of 100% TFA was added to each sample to hydrolyze DNA, and the pH was subsequently adjusted to 8.5 with 3 M Tris solution. Disulfide bonds were reduced with 10 mM DTT for 45 min at 37 °C, followed by alkylation of cysteines with 55 mM CAA for 30 min at room temperature. Prior to tryptic digestion, the detergent was removed from lysates by SP3 cleanup on an Agilent BRAVO system (Agilent Technologies), following the protocol first described by Hughes et al. ([34]). Briefly, lysate containing 200 μg of protein was mixed with SP3 beads, and proteins were precipitated onto a 50:50 mixture of Sera-Mag Speed Bead types A and B (Thermo Fisher Scientific) in 58% acetonitrile. Beads were washed three times with 80% ethanol in water and once with acetonitrile. Tryptic digest was performed in 100 μl of digestion buffer (2 mM CaCl2 in 25 mM Hepes, pH 8.5) with a 1:50 enzyme-to-protein ratio. Bead-precipitated proteins were digested at 37 °C overnight. On the next day, the supernatant of each sample was transferred to a new well and vacuum dried.
Dried peptides were reconstituted in water and labeled with the respective TMT10plex-labeling reagent as described previously ([35]) with a protein to tandem mass tag (TMT) reagent ratio of 1:2. Labeled samples were pooled, vacuum dried, and reconstituted in 0.1% formic acid (FA) prior to desalting on SepPAC50 columns (waters corp.). Peptides were fractionated using a Dionex Ultra 3000 HPLC system with a Waters XBridge BEH130 C18 3.5 um 2.1 × 250 mm column as described previously ([36]). Ninety-six fractions were collected and pooled to 48. For the full proteome analysis, one fifth of each fraction was transferred to a new 96-well plate and both plates were vacuum dried. For the phosphopeptide analysis, dried peptides were reconstituted in 55 μl 0.1% TFA in 30% ACN, pooled from 48 to 12 fractions, and mixed with 70 μl priming buffer (0.1% TFA, 100% ACN). Phosphopeptides were enriched from each of the 12 fractions using Fe(III)-IMAC-NTA cartridges on the AssayMAP BRAVO (Agilent Technologies) platform as described previously ([36]). Phosphopeptides were eluted with 60 μl 1% ammonia, vacuum dried, and stored at −20 °C prior to LC-MS/MS analysis.
The Fusion Lumos was operated in data-dependent acquisition and positive ionization mode. Samples were measured employing a MS3 method. In brief, full scan MS1 spectra were recorded in the orbitrap (OT) from 360 to 1560 m/z at 60,000 resolution using an automatic gain control (AGC) target value of 4e5 charges and a maximum injection time (maxIT) of 50 ms. Iontrap-MS2 spectra for peptide identification were acquired using higher energy collision dissociation (HCD) fragmentation with 32% normalized collision energy (NCE), an isolation window of 0.6 m/z, and an AGC target value of 1.2e4 charges. To obtain quantitative information on TMT reporter ions, each peptide precursor was fragmented again as for MS2 analysis followed by synchronous selection of the up to eight most intense peptide fragments in the iontrap ([37]) and further fragmentation via HCD using a NCE of 55%. The MS3 scan was recorded in the OT at 50,000 resolution (scan range 100–1000 m/z, isolation window of 1.2 m/z, AGC of 1e5 charges, maxIT of 86 ms). The cycle time was 1.2 s, and the dynamic exclusion lasted for 50 s.
Peptide, protein, and phosphorylation site identification and quantification were performed with MaxQuant software (v. 1.6.3.3, https://www.maxquant.org/) with standard settings for reporter ion MS3 unless described otherwise ([39]). Isotope impurities of the TMT lot were specified to allow MaxQuant the automated correction of TMT intensities. […]

[1] abbreviates: protein 0610011F06Rik / Mettl26 (Q9DCS2).
[2] abbreviates: protein 0610037L13Rik / Czib (Q8BHG2).
Where [3] appears, read: protein Trappc2 (Q8R3W2;Q9CQP2).

For `CCOC(=O)c1nnn(-c2nn3nnnc3c3ccccc23)c1C` [compound 2], for the setting “3xEC50, 72 h, relative to compound 3 at 10 μM”, the “expression of proteins associated with detoxification by peroxiredoxin and further ROS-reducing proteins (Prdx1, Txnrd1, Srxn1, Cat, Nqo1, Blvrb)” value was “upregulated”. For the same compound, the “log2 FC cmpd2/cmpd3” value under setting [1] is listed as -0.03832, the “log2 FC cmpd2/cmpd3” value under setting [2] was -0.06333, the “log2 FC cmpd2/cmpd3” value (protein Bap18 (D3Z687;Q9DCT6)) was -0.2777 and the “log2 FC cmpd2/cmpd3” value under setting [3] is reported as -0.004852. The “normalized reporter intensities R1” value by setting is: under setting [1], 20.3044; under setting [2], 20.0663; (protein Bap18 (D3Z687;Q9DCT6)) 16.8475; under setting [3], 18.4905. Further, the “normalized reporter intensities R3” value runs as follows: under setting [1], 20.1769; under setting [2], 19.9557; (protein Bap18 (D3Z687;Q9DCT6)) 16.9614; under setting [3], 18.3959.
Take `c1ccc2c(c1)c(-n1ccnc1)nn1nnnc21` [compound 3]: the “normalized reporter intensities R1” value by setting is: under setting [1], 20.3551; under setting [2], 20.1036; (protein Bap18 (D3Z687;Q9DCT6)) 17.1673; under setting [3], 18.5332. Also, the “normalized reporter intensities R3” value reads like this: under setting [1], 20.1713; under setting [2], 20.057; (protein Bap18 (D3Z687;Q9DCT6)) 17.2868; under setting [3], 18.3626.
